From paper PMC9170845, “Development of a multi faceted platform containing a tetrazine, fluorophore and chelator: synthesis, characterization, radiolabeling, and immuno-SPECT imaging” (EJNMMI Radiopharmacy and Chemistry, 2022)

Experiments:
[1] = Stability of cyano BODIPY core in acidic conditions (TFA in CDCl3, 1H NMR); assay type: physicochemical; details: treated with TFA in CDCl3, monitored via 1H NMR, 11 days
From the text: Initially our scaffold design comprised of the conventional 4,4′-difluoro-BODIPY fluorophore (Additional file1: Scheme S1). Despite numerous attempts and alternative strategies for completing the synthesis of the platform using the F-BODIPY fluorophore, the route was unsuccessful resulting in either BF2 core removal or complete decomposition (see Additional File), despite there being reports in the literature of similar transformations being successful in the presence of F-BODIPY dyes (Alnajjar et al. [2018]; Tsuji et al. [2018]; Sui et al. [2016]; Compton et al. [2019]; Ieda et al. [2014]). […] The increased stability is believed to be a result of enhanced aromaticity, decreased charge density on the boron, and the formation of a stable 4,4′-dicyano-BODIPY-TFA complex. To the best of our knowledge there has only been one example of an investigation incorporating 4,4′-dicyano-BODIPYs into a chemical synthesis with protecting groups (Uriel et al. [2020]). To reassure the stability of the cyano BODIPY core in acidic conditions, 7 was treated with TFA in CDCl3 and monitored via ^1H NMR (see Additional file1: Fig. S11) (Wang et al. [2018]). […] An alternative route was initially investigated, where the Cbz on 9 underwent hydrogenolysis followed by insertion of the chelator, deprotection, then insertion of the tetrazine. […]

[2] = Fluorescence characterization (excitation/emission spectra, absolute quantum yield); assay type: physicochemical; details: in DMSO (stated for 13); for fluorescence quantum yield (Φfl): absolute PLQY, integrating sphere
Protocol: Following the synthesis of the final scaffold, the excitation and emission spectrum, and quantum yield were measured for the uncomplexed scaffold DO3A-BODIPY-Tz (13) in DMSO (Fig. 1), where an excitation λmax = 524 nm, emission λmax = 537 nm and a fluorescence quantum yield (Φfl) of 0.38 was observed. There are reports of tetrazine residues deactivating the fluorescence properties of fluorophores when they belong to the same molecular entity. However, once the tetrazine is conjugated, these properties are reinstated (Oliveira et al. [2017]; Wu and Devaraj [2018]). To ensure this, 13 was conjugated to TCO-NHS 16 in DMSO (Scheme 2). A distinct colour change from red to orange was observed which clearly indicated tetrazine consumption. The fluorescence properties of 17 (see Additional file1: Fig. S36) were then measured and compared to 13 and 4,4′-dicyano-BODIPY (7) (see Additional file1: Fig. S35; λmax excitation = 527 nm, λmax emission = 541 nm, Φfl = 0.87).
Luminescence experiments were conducted on an Edinburgh Instruments FS5 spectrometer using the SC-05 cassette. All spectra were corrected for instrument response. Excitation and emission monochromator bandwidths for 7 and 17 were set to 1 nm, and 1.5 nm for 13. The emission spectrum for 13 was collected with the aid of a Knight Optical 395 nm long-pass filter to reduce the effects of scattering. Solution-based absolute photoluminescent quantum yields (PLQY) were obtained for 7, 13, and 17 via the SC-30 Integrating Sphere cassette with excitation wavelengths of 380, 490, and 378 nm respectively.

emission λmax [2] | excitation λmax [2] | fluorescence quantum yield (Φfl) [2] | Compound | Stability in acidic conditions [1]
541 nm | 527 nm | 0.87 | CCC1=C(C)C2=C(c3ccc(C(=O)ON4C(=O)CCC4=O)cc3)c3c(C)c(CC)c(C)n3[B-](C#N)(C#N)[N+]2=C1C [compound 7, 4,4-dicyano-8-(4-(succinimidocarboxy)phenyl)-2,6-diethyl-1,3,5,7-tetramethyl-4-bora-3a,4a-diaza-s-indacene] | no indication of instability even after 11 days
537 nm | 524 nm | 0.38 | CCC1=C(C)C2=C(c3ccc(C(=O)NC(CCCCNC(=O)Cc4ccc(-c5nncnn5)cc4)C(=O)NC(CCCCNC(=O)CN4CCN(CC(=O)O)CCN(CC(=O)O)CCN(CC(=O)O)CC4)C(=O)O)cc3)c3c(C)c(CC)c(C)n3[B-](C#N)(C#N)[N+]2=C1C [compound 13, 2,2′,2″-(10-(2-(((S)-5-((S)-6-(2-(4-(1,2,4,5-tetrazin-3-yl)phenyl)acetamido)-2-(4-(4,4-dicyano-2,6-diethyl-1,3,5,7-tetramethyl-4-bora-3a,4a-diaza-s-indacen-8-yl)benzamido)hexanamido)-5-carboxypentyl)amino)-2-oxoethyl)-1,4,7,10-tetraazacyclododecane-1,4,7-triyl)triacetic acid] | 
537 nm | 525 nm | 0.79 | CCC1=C(C)C2=C(c3ccc(C(=O)NC(CCCCNC(=O)Cc4ccc(C5=NNC=C6CCC(OC(=O)ON7C(=O)CCC7=O)CCCC65)cc4)C(=O)NC(CCCCNC(=O)CN4CCN(CC(=O)O)CCN(CC(=O)O)CCN(CC(=O)O)CC4)C(=O)O)cc3)c3c(C)c(CC)c(C)n3[B-](C#N)(C#N)[N+]2=C1C (stereo not shown) [compound 17] | 
